Columns and labels:
[1] = for vapor or sublimation pressure: Liquid; for Triple point temperature: Adiabatic calorimetry
[2] = molar heat capacity at saturation pressure
[3] = Molar enthalpy of transition or fusion

C1CCC(SC2CCCCC2)CC1 [dicyclohexyl sulfide]
Settings | Molar enthalpy of transition or fusion [kcal/mol] | Triple point temperature [K] | vapor or sublimation pressure [kPa]
[1], 334.98 K | – | – | 0.0195
[1], 344.99 K | – | – | 0.0387
[1], 354.98 K | – | – | 0.073
[1], 364.98 K | – | – | 0.1323
[1], 374.98 K | – | – | 0.2307
[1], 384.97 K | – | – | 0.3883
[1], 394.98 K | – | – | 0.6338
[1], 404.98 K | – | – | 1.004
[1], 414.96 K | – | – | 1.546
[1], 419.97 K | – | – | 1.902
[1], 424.96 K | – | – | 2.324
[1], 429.96 K | – | – | 2.825
[1], Crystal 1 | – | 284.2 | –
[1], Crystal 2 | – | 264.7 | –
[1], Crystal 3 | – | 41.35 | –
[3], Crystal 1 | 1.358 | – | –
[3], Crystal 2 | 2.392 | – | –

[2]
Settings | molar heat capacity [J/K/mol]
5 K, Crystal 3 | 0.65
7.076 K, Crystal 3, Vacuum adiabatic calorimetry | 1.83
8.093 K, Crystal 3, Vacuum adiabatic calorimetry | 2.68
9.092 K, Crystal 3, Vacuum adiabatic calorimetry | 3.7
10 K, Crystal 3 | 4.79
10.12 K, Crystal 3, Vacuum adiabatic calorimetry | 4.94
11.22 K, Crystal 3, Vacuum adiabatic calorimetry | 6.32
12.48 K, Crystal 3, Vacuum adiabatic calorimetry | 8.05
13.88 K, Crystal 3, Vacuum adiabatic calorimetry | 10.26
15 K, Crystal 3 | 12.08
15.44 K, Crystal 3, Vacuum adiabatic calorimetry | 12.81
17.17 K, Crystal 3, Vacuum adiabatic calorimetry | 15.8
19.09 K, Crystal 3, Vacuum adiabatic calorimetry | 19.16
20 K, Crystal 3 | 20.77
21.2 K, Crystal 3, Vacuum adiabatic calorimetry | 22.91
23.53 K, Crystal 3, Vacuum adiabatic calorimetry | 27.09
25 K, Crystal 3 | 29.63
26.12 K, Crystal 3, Vacuum adiabatic calorimetry | 31.54
29 K, Crystal 3, Vacuum adiabatic calorimetry | 36.28
30 K, Crystal 3 | 37.98
32.2 K, Crystal 3, Vacuum adiabatic calorimetry | 41.46
33.51 K, Crystal 3, Vacuum adiabatic calorimetry | 43.05
35 K, Crystal 3 | 45.26
35.74 K, Crystal 3, Vacuum adiabatic calorimetry | 46.49
36 K, Crystal 3 | 46.79
37 K, Crystal 3 | 48.49
37.54 K, Crystal 3, Vacuum adiabatic calorimetry | 49.5
38 K, Crystal 3 | 50.1
39 K, Crystal 3 | 53.43
39.08 K, Crystal 3, Vacuum adiabatic calorimetry | 53.4
40 K, Crystal 3 | 59.33
40.2 K, Crystal 3 | 61.57
40.4 K, Crystal 3 | 65.04
40.6 K, Crystal 3 | 70.56
40.8 K, Crystal 3 | 79.24
41 K, Crystal 3 | 92.56
41.1 K, Crystal 3 | 101.56
41.2 K, Crystal 3 | 112.49
41.3 K, Crystal 3 | 125.67
41.35 K, Crystal 2 | 132.62
41.35 K, Crystal 3 | 132.62
41.4 K, Crystal 2 | 124.85
41.5 K, Crystal 2 | 113.3
41.6 K, Crystal 2 | 103.72
41.7 K, Crystal 2 | 95.82
41.8 K, Crystal 2 | 89.37
41.9 K, Crystal 2 | 84.14
42 K, Crystal 2 | 79.94
42.1 K, Crystal 2 | 76.58
42.2 K, Crystal 2 | 73.92
42.3 K, Crystal 2 | 71.85
42.4 K, Crystal 2 | 70.24
42.5 K, Crystal 2 | 68.99
42.6 K, Crystal 2 | 68.04
42.7 K, Crystal 2 | 67.3
42.8 K, Crystal 2 | 66.72
42.9 K, Crystal 2 | 66.27
43 K, Crystal 2 | 65.89
44 K, Crystal 2 | 63.21
44.5 K, Crystal 2, Vacuum adiabatic calorimetry | 62.94
45 K, Crystal 2 | 62.78
45.83 K, Crystal 2, Vacuum adiabatic calorimetry | 62.98
46 K, Crystal 2 | 63.03
48 K, Crystal 2 | 64
48.81 K, Crystal 2, Vacuum adiabatic calorimetry | 64.58
50 K, Crystal 2 | 65.53
53.62 K, Crystal 2, Vacuum adiabatic calorimetry | 68.84
54.45 K, Crystal 2, Vacuum adiabatic calorimetry | 69.65
55 K, Crystal 2 | 70.15
58.57 K, Crystal 2, Vacuum adiabatic calorimetry | 73.26
60 K, Crystal 2 | 74.51
64.06 K, Crystal 2, Vacuum adiabatic calorimetry | 78.07
70 K, Crystal 2 | 83.42
70.24 K, Crystal 2, Vacuum adiabatic calorimetry | 83.65
77.05 K, Crystal 2, Vacuum adiabatic calorimetry | 89.46
80 K, Crystal 2 | 91.91
82.72 K, Crystal 2, Vacuum adiabatic calorimetry | 94.2
84.66 K, Crystal 2, Vacuum adiabatic calorimetry | 95.88
89.87 K, Crystal 2, Vacuum adiabatic calorimetry | 100.11
90 K, Crystal 2 | 100.24
93.06 K, Crystal 2, Vacuum adiabatic calorimetry | 102.76
98.25 K, Crystal 2, Vacuum adiabatic calorimetry | 106.88
100 K, Crystal 2 | 108.32
101.97 K, Crystal 2, Vacuum adiabatic calorimetry | 109.92
107.36 K, Crystal 2, Vacuum adiabatic calorimetry | 114.09
117.01 K, Crystal 2, Vacuum adiabatic calorimetry | 121.51
120 K, Crystal 2 | 123.79
126.84 K, Crystal 2, Vacuum adiabatic calorimetry | 128.96
136.8 K, Crystal 2, Vacuum adiabatic calorimetry | 136.33
140 K, Crystal 2 | 138.69
146.83 K, Crystal 2, Vacuum adiabatic calorimetry | 143.7
156.79 K, Crystal 2, Vacuum adiabatic calorimetry | 151.02
160 K, Crystal 2 | 153.38
167.83 K, Crystal 2, Vacuum adiabatic calorimetry | 159.16
179.9 K, Crystal 2, Vacuum adiabatic calorimetry | 168.19
180 K, Crystal 2 | 168.28
192 K, Crystal 2, Vacuum adiabatic calorimetry | 177.65
200 K, Crystal 2 | 184.16
204.1 K, Crystal 2, Vacuum adiabatic calorimetry | 187.6
212.64 K, Crystal 2, Vacuum adiabatic calorimetry | 194.77
216.18 K, Crystal 2, Vacuum adiabatic calorimetry | 197.93
220 K, Crystal 2 | 201.6
223.24 K, Crystal 2, Vacuum adiabatic calorimetry | 204.46
227.23 K, Crystal 2, Vacuum adiabatic calorimetry | 208.11
229.69 K, Crystal 2, Vacuum adiabatic calorimetry | 210.53
233.56 K, Crystal 2, Vacuum adiabatic calorimetry | 214.23
239.46 K, Crystal 2, Vacuum adiabatic calorimetry | 220.49
240 K, Crystal 2 | 221.21
243.62 K, Crystal 2, Vacuum adiabatic calorimetry | 224.96
245.76 K, Crystal 2, Vacuum adiabatic calorimetry | 227.13
249.49 K, Crystal 2, Vacuum adiabatic calorimetry | 232.29
250 K, Crystal 2 | 231.72
252.11 K, Crystal 2, Vacuum adiabatic calorimetry | 235.33
255.1 K, Crystal 2, Vacuum adiabatic calorimetry | 241.32
255.37 K, Crystal 2, Vacuum adiabatic calorimetry | 242.85
256.11 K, Crystal 2, Vacuum adiabatic calorimetry | 244.36
258.04 K, Crystal 2, Vacuum adiabatic calorimetry | 251.78
258.75 K, Crystal 2, Vacuum adiabatic calorimetry | 257.57
260 K, Crystal 2 | 264.46
264.7 K, Crystal 1 | 315.22
264.7 K, Crystal 2 | 316.1
267.11 K, Crystal 1, Vacuum adiabatic calorimetry | 316.81
270 K, Crystal 1 | 318.74
270.5 K, Crystal 1, Vacuum adiabatic calorimetry | 319.58
270.99 K, Crystal 1, Vacuum adiabatic calorimetry | 319.82
272.57 K, Crystal 1, Vacuum adiabatic calorimetry | 320.97
274.72 K, Crystal 1, Vacuum adiabatic calorimetry | 322.6
275.18 K, Crystal 1, Vacuum adiabatic calorimetry | 322.61
276.68 K, Crystal 1, Vacuum adiabatic calorimetry | 324.34
277.72 K, Crystal 1, Vacuum adiabatic calorimetry | 325.42
278.97 K, Crystal 1, Vacuum adiabatic calorimetry | 327.22
280 K, Crystal 1 | 325.48
284.2 K, Crystal 1 | 328.37
284.2 K, Liquid | 317.32
298.15 K, Liquid | 326.14
300 K, Liquid | 327.33
320 K, Liquid | 340.79
340 K, Liquid | 354.76
360 K, Liquid | 369.3
380 K, Liquid | 384.16
400 K, Liquid | 399.24
420 K, Liquid | 414.4
440 K, Liquid | 429.57

[2], Liquid, Vacuum adiabatic calorimetry
Settings | molar heat capacity [J/K/mol]
287.6 K | 319.48
289.37 K | 320.58
290.6 K | 321.35
296.18 K | 324.86
296.81 K | 325.28
307.92 K | 332.58
321.65 K | 341.93
336.79 K | 352.46
352.3 K | 363.66
367.76 K | 375.02
383 K | 386.42
398.09 K | 397.79
413.1 K | 409.16
428.06 K | 420.5
439.99 K | 429.5

Source: the NIST ThermoML archive (doi:10.1016/j.jct.2003.11.012)
